pIC50: −log10 of the molar value. Counter-ions that a name gives are not always drawn.
These compounds were tested against T1, hmGluR5a receptor (Homo sapiens, UniProt P41594) (assay: Calcium flux assay (fura-2, glutamate-evoked [Ca2+]i)). Settings: hmGluR5a/L38-20 mouse fibroblast Ltk- cells; 10 μM glutamate (EC80); read-out: mGluR5 inhibitory activity, IC50.
T1 construct: expressed in transfected cells; host or cells: mouse fibroblast Ltk- cells (hmGluR5a/L38-20 cell line)
T1 sequence (P41594 21-1180 isoform P41594-2 limits assumed): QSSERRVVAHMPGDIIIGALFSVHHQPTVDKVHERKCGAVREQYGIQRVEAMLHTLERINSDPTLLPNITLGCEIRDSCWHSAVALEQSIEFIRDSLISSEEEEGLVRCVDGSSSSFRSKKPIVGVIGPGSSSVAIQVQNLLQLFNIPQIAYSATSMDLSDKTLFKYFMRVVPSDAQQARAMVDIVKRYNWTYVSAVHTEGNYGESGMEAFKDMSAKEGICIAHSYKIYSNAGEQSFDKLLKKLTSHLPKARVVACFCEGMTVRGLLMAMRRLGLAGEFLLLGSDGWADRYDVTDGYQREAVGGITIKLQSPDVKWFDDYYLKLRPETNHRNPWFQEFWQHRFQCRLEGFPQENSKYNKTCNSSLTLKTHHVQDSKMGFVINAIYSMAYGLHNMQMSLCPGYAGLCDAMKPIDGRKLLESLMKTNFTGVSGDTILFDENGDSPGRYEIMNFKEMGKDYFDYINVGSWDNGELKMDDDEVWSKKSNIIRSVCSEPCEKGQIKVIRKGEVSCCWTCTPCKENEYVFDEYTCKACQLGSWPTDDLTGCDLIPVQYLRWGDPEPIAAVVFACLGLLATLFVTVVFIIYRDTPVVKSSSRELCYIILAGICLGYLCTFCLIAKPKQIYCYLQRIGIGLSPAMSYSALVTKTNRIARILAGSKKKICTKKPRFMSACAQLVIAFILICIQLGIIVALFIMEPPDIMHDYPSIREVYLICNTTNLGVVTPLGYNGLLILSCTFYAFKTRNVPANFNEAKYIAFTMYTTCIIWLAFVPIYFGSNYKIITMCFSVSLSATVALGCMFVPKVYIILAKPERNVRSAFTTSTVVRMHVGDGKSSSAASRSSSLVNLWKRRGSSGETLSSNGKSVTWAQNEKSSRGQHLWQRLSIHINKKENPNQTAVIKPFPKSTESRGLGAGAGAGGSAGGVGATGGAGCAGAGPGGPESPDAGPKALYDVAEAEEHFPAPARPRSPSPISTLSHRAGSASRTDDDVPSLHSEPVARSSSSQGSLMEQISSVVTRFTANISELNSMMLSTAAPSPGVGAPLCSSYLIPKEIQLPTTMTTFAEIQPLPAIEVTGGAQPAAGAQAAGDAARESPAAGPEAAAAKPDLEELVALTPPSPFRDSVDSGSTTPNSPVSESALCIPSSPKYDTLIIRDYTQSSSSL
Type: cell-based
Procedure: The compounds of this invention were tested against the hmGluR5a receptor stably expressed in mouse fibroblast Ltk-cells (the hmGluR5a/L38-20 cell line) and activity was detected by changes in [Ca^++]i, measured using the fluorescent Ca^++-sensitive dye, fura-2. InsP assays were performed in mouse fibroblast Ltk^− cells (LM5a cell line) stably expressing hmGluR5a. The assays described in International Patent Publication WO 0116121 can be used.
The activity of compounds was examined against the hmGluR5a receptor stably expressed in mouse fibroblast Ltk− cells (the hmGluR5a/L38 cell line). See generally Daggett et al., Neuropharmacology 34:871-886 (1995). Receptor activity was detected by changes in intracellular calcium ([Ca^2+]i, measured using the fluorescent calcium-sensitive dye, fura-2. The hmGluR5a/L38-20 cells were plated onto 96-well plates, and loaded with 3 µM fura-2 for 1 h. Unincorporated dye was washed from the cells, and the cell plate was transferred to a 96-channel fluorimeter (SIBIA-SAIC, La Jolla, Calif.) which is integrated into a fully automated plate handling and liquid delivery system. Cells were excited at 350 and 385 nm with a xenon source combined with optical filters. Emitted light was collected from the sample through a dichroic mirror and a 510 nm interference filter and directed into a cooled CCD camera (Princeton Instruments). Image pairs were captured approximately every is, and ratio images were generated after background subtraction. After a basal reading of 20s, an EC80 concentration of glutamate (10 μM) was added to the well, and the response evaluated for another 60s. The glutamate-evoked increase in [Ca′]i in the presence of the screening compound was compared to the response of glutamate alone (the positive control).
A pIC50 greater than 5.70 was found for Clc1cc(-c2cccnc2)cc(-n2cc(-c3ccccn3)cn2)c1 [Example 1, 2-[1-(3-chloro-5-pyridin-3-ylphenyl)-1H-pyrazol-4-yl]pyridine] in this work. A pIC50 greater than 5.70 was found for Fc1cc(-c2nn[nH]n2)cc(-n2ccc(-c3ccccn3)n2)c1 [Example 2, 2-{1-[3-fluoro-5-(2H-tetraazol-5-yl)phenyl]-1H-pyrazol-3-yl}pyridine] in this work. A pIC50 greater than 5.70 was found for Clc1cc(-c2cccnc2)cc(-c2cnn(-c3ccccn3)c2)c1 [Example 3, 2-[4-(3-chloro-5-pyridin-3-ylphenyl)-1H-pyrazol-1-yl]pyridine] in this work. A pIC50 greater than 5.70 was found for c1ccc(-c2cnn(-c3cccc(-c4cccnc4)c3)c2)nc1 [Example 4] in this work. A pIC50 greater than 5.70 was found for c1ccc(-c2cccc(-n3cc(-c4ccccn4)cn3)c2)nc1 [Example 5] in this work. A pIC50 greater than 5.70 was found for c1ccc(-c2cccc(-n3cc(-c4ccccn4)cn3)c2)cc1 [Example 6] in this work. A pIC50 greater than 5.70 was found for COc1cc(-c2cnn(-c3ccccn3)c2)ccc1-c1ccccn1 [Example 7] in this work. A pIC50 of less than 5.70 was found for c1ccc(-c2cnn(-c3cccc(-c4cccnc4)n3)c2)nc1 [Example 8, 6-(4-pyridin-2-yl-1H-pyrazol-1-yl)-2,3′-bipyridine] in this work. A pIC50 of less than 5.70 was found for c1ccc(-c2ccc(-n3ccc(-c4ccccn4)n3)cc2)cc1 [Example 9, 2-(1-biphenyl-4-yl-1H-pyrazol-3-yl)-pyridine hydrochloride] in this work. A pIC50 of less than 5.70 was found for c1ccc(-c2cnn(-c3cccc(-c4ccncc4)c3)c2)nc1 [Example 10] in this work. A pIC50 of less than 5.70 was found for c1ccc(-c2ccc(-n3cc(-c4ccccn4)cn3)cc2)nc1 [Example 11] in this work. A pIC50 of less than 5.70 was found for c1ccc(-c2cnn(-c3ccc(-c4cccnc4)cc3)c2)nc1 [Example 12] in this work. A pIC50 of less than 5.70 was found for Cc1ccncc1-c1cc(F)cc(-c2cnn(-c3ccccn3)c2)c1 [Example 13] in this work. A pIC50 of less than 5.70 was found for Clc1cc(-c2cnn(-c3ccccn3)c2)cc(-n2ccc3ccncc32)c1 [Example 14] in this work. A pIC50 of less than 5.70 was found for Fc1cc(-c2cnn(-c3ccccn3)c2)ccc1-c1ccccn1 [Example 15] in this work. A pIC50 of less than 5.70 was found for c1ccc(-c2ccc(-n3cc(-c4ccccn4)cn3)cc2)cc1 [Example 16] in this work. A pIC50 of less than 5.70 was found for c1ccc(-c2ccccc2-n2cc(-c3ccccn3)cn2)cc1 [Example 17] in this work. A pIC50 of less than 5.70 was found for c1ccc(-c2ccccc2-n2cc(-c3ccncn3)cn2)cc1 [Example 18] in this work. A pIC50 of less than 5.70 was found for c1ccc(-c2cccc(-n3cc(-c4ccncn4)cn3)c2)cc1 [Example 19] in this work. A pIC50 of less than 5.70 was found for c1ccc(-c2cnn(-c3ccc(C4CCCCC4)cc3)c2)nc1 [Example 20] in this work. A pIC50 of less than 5.70 was found for c1cc(-c2cnn(-c3ccc(C4CCCCC4)cc3)c2)ncn1 [Example 21] in this work. A pIC50 of less than 5.70 was found for c1ccc2nc(-c3cnn(-c4ccc(C5CCCCC5)cc4)c3)ccc2c1 [Example 22] in this work. A pIC50 of less than 5.70 was found for c1ccc2nc(-c3cnn(-c4ccc(C5CCCCC5)cc4)c3)cnc2c1 [Example 23] in this work. A pIC50 of less than 5.70 was found for Cc1cc(-c2cnn(-c3ccc(C4CCCCC4)cc3)c2)nc2ccccc12 [Example 24] in this work. A pIC50 of less than 5.70 was found for c1ccc(-c2ccc(-n3cc(-c4ccncn4)cn3)cc2)cc1 [Example 25] in this work. A pIC50 of less than 5.70 was found for Cc1cc(-c2cnn(-c3ccc(N4CCNC4=O)cc3)c2)nc2ccccc12 [Example 26] in this work. A pIC50 of less than 5.70 was found for CN1CCN(c2ccc(-n3cc(-c4ccncn4)cn3)cc2)C1=O [Example 27] in this work. A pIC50 of less than 5.70 was found for CN1CCN(c2ccc(-n3cc(-c4ccc5ccccc5n4)cn3)cc2)C1=O [Example 28] in this work. A pIC50 of less than 5.70 was found for CN1CCN(c2ccc(-n3cc(-c4cnc5ccccc5n4)cn3)cc2)C1=O [Example 29] in this work. A pIC50 of less than 5.70 was found for Cc1cc(-c2cnn(-c3ccc(N4CCN(C)C4=O)cc3)c2)nc2ccccc12 [Example 30] in this work. A pIC50 of less than 5.70 was found for c1ccc(-c2cccc(-n3cc(-c4ccccn4)cn3)c2)cc1 [Example 31] in this work. A pIC50 of less than 5.70 was found for c1ccc(-c2cccc(-c3cnn(-c4ccccn4)c3)c2)cc1 [Example 33] in this work.
